Test results taken from patent publication US12240844B2 (Voronoi, Inc., priority 2019, dated 2025).

Tests used:
Format in all cases: biochemical
human GST-CLK1 (129-end) = molecular target: T1, human GST-CLK1 (129-end) (Homo sapiens, UniProt P49759); experiment: GST-CLK1 enzyme inhibition, ADP-Glo kinase assay; settings: ATP 10 uM
T1 construct: purified human GST-CLK1 (129-end, Signalchem) enzyme; GST; purchased Signalchem
In short: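 ADP formation was read by ADP-Glo luminescence after 1 h at 25° C with 3 ng human GST-CLK1 (129-end), substrate and 10 uM ATP in Tris pH 7.4 buffer containing MgCl2, BSA and DTT. Inhibition relative to untreated solvent control gave IC50 (nM), run in triplicate.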

LRRK2 (G2019S) = LRRK2 (G2019S) (Homo sapiens, UniProt Q5S007, G2019S); experiment: LRRK2 G2019S enzyme inhibition, ADP-Glo kinase assay; parameters: purchased SignalChem L10-12GG
Procedure: In order to evaluate the inhibitory activity of the compounds according to the present invention on LRRK2, LRRK2 (G2019S), DYRK1, CLK1 and TTK kinases, the following experiment was performed.
Example compounds were reacted with the purified human LRRK2 G2019S (L10-12GG, SignalChem) enzyme to evaluate the enzyme inhibitory ability as follows. The reaction buffer was used as the composition of 40 mM Tris-HCl pH7.4, 20 mM MgCl2, 0.5 mg/ml BSA and 50 μM DTT, and the reaction of all test materials was performed on the reaction buffer. The compound was diluted with 10 mM DMSO stock in 12 steps by a serial dilution method, and the enzyme activity was measured at the final compound concentrations of 50, 10, 2, 0.4, 0.08, 0.016, 0.0032, 0.00064, 0.000128, 0.0000256, 0.00000512 and 0.000001024 μM. In the test, the human LRRK2 G2019S (16 ng) enzyme was reacted with the purified ATP (25 μM) and an enzyme substrate (0.2 μg) at 25° C. for 2 hours, and then the enzyme activity was identified using the in vitro ADP-Glo™ kinase assay (promega). The enzyme activity reaction liquid, an ADP-Glo reaction liquid and an enzyme potency detection solution were reacted in a ratio of 2:2:1, and the degree of inhibition of enzyme activity was measured by Luminescence. The degree of inhibition of enzyme activity according to the treatment concentrations of the respective compounds was calculated based on the fluorescence of the enzyme activity of a solvent control group that was not treated with the compound, where the concentration of each compound to inhibit enzyme activity inhibition by 50% was determined as an IC50 (nM) value and obtained using Prism (Version 5.01, GraphPad) software.
In the table below, the following designations were used for the evaluation of enzyme inhibitory ability.

[1] = molecular target: T2, human GST-DYRK1A (full length) (Homo sapiens, UniProt Q13627); experiment: GST-DYRK1A enzyme inhibition, ADP-Glo kinase assay; settings: read-out: DYRK1 IC50
T2 construct: purified human GST-DYRK1A (full length, Thermo scientifics) enzyme; GST; purchased Thermo scientifics
In short: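 ADP-Glo luminescence quantified kinase activity after a 1 h, 25° C reaction of 10 ng full-length GST-tagged human DYRK1A, substrate and 10 uM ATP in Tris-HCl buffer pH 7.4 with MgCl2, BSA and DTT. Triplicate IC50 values (nM) calculated relative to untreated solvent control.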

T1 sequence (P49759 129-484 limits assumed): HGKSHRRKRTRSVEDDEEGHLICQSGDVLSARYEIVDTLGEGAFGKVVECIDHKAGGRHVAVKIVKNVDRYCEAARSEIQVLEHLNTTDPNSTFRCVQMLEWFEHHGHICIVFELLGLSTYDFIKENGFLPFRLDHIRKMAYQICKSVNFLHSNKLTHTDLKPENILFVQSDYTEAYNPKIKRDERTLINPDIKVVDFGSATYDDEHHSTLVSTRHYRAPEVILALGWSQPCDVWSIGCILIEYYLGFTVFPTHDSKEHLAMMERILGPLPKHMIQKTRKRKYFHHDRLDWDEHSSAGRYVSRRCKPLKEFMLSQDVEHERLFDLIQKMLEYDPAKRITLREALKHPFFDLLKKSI
LRRK2 (G2019S), sequence (Q5S007 970-2527 G2019S limits assumed): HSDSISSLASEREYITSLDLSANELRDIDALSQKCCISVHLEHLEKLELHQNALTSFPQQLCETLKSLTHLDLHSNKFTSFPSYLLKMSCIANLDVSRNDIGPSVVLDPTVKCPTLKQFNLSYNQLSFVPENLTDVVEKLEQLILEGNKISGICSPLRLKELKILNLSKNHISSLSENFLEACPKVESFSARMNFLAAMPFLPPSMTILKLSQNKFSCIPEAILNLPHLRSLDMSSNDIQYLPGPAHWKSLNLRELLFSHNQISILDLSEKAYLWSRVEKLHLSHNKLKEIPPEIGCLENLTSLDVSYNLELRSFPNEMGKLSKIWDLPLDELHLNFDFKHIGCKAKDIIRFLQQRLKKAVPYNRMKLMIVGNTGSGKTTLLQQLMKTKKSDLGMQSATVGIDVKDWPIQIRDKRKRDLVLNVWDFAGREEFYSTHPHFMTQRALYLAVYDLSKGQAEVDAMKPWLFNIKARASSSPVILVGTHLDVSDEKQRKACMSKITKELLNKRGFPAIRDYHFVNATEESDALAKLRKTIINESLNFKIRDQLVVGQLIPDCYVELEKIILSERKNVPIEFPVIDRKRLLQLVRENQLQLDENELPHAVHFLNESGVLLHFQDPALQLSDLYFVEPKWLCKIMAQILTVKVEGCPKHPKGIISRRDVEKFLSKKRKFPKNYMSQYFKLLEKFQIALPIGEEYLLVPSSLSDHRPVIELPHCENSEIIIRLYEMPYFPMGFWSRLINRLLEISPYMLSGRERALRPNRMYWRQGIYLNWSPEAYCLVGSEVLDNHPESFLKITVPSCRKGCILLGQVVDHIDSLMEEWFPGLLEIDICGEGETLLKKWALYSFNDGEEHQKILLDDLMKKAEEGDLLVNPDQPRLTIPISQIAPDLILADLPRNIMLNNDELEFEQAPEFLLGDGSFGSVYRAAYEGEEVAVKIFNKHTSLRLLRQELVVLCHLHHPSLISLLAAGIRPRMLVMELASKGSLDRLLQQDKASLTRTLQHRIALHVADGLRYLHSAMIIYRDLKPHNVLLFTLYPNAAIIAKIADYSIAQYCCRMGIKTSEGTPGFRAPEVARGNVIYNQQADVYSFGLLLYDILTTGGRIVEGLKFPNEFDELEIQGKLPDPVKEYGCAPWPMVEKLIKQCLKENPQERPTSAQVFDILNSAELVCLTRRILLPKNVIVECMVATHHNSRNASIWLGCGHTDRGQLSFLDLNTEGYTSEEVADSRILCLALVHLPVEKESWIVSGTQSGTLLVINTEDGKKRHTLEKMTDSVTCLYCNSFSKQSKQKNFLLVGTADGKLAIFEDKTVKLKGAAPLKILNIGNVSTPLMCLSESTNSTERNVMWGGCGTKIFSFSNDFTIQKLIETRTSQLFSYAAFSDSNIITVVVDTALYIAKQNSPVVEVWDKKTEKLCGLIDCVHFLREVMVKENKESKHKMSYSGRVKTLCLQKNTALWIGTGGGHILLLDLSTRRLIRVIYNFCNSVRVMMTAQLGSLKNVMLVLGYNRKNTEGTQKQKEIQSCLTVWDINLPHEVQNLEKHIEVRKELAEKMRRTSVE

CNc1cc(Nc2ccc(S(C)(=O)=O)cc2OC)nc2[nH]cc(Cl)c12 [Example 80, 3-chloro-N^6-(2-methoxy-4-(methylsulfonyl)phenyl)-N^4-methyl-1H-pyrrolo[2,3-b]pyridine-4,6-diamine]
IC50 (human GST-CLK1 (129-end)): 301 to 1000 nM | IC50 (LRRK2 (G2019S)): < 100 nM | IC50 [1]: 301 to 1000 nM

CCNc1cc(Nc2ccc(S(C)(=O)=O)cc2OC)nc2[nH]cc(Cl)c12 [Example 81, 3-chloro-N^4-ethyl-N^6-(2-methoxy-4-(methylsulfonyl)phenyl)-1H-pyrrolo[2,3-b]pyridine-4,6-diamine]
IC50 (human GST-CLK1 (129-end)): 301 to 1000 nM | IC50 (LRRK2 (G2019S)): 301 to 1000 nM | IC50 [1]: 301 to 1000 nM

CCCNc1cc(Nc2ccc(S(C)(=O)=O)cc2OC)nc2[nH]cc(Cl)c12 [Example 82, 3-chloro-N^6-(2-methoxy-4-(methylsulfonyl)phenyl)-N^4-propyl-1H-pyrrolo[2,3-b]pyridine-4,6-diamine]
IC50 (human GST-CLK1 (129-end)): 301 to 1000 nM | IC50 (LRRK2 (G2019S)): 301 to 1000 nM | IC50 [1]: 301 to 1000 nM

COc1cc(S(C)(=O)=O)ccc1Nc1cc(NC(C)C)c2c(Cl)c[nH]c2n1 [Example 83, 3-chloro-N^4-isopropyl-N^6-(2-methoxy-4-(methylsulfonyl)phenyl)-1H-pyrrolo[2,3-b]pyridine-4,6-diamine]
IC50 (human GST-CLK1 (129-end)): 301 to 1000 nM | IC50 (LRRK2 (G2019S)): 301 to 1000 nM | IC50 [1]: 301 to 1000 nM

COc1cc(S(C)(=O)=O)ccc1Nc1cc(NC2CC2)c2c(Cl)c[nH]c2n1 [Example 84, 3-chloro-N^4-cyclopropyl-N^6-(2-methoxy-4-(methylsulfonyl)phenyl)-1H-pyrrolo[2,3-b]pyridine-4,6-diamine]
IC50 (human GST-CLK1 (129-end)): 301 to 1000 nM | IC50 (LRRK2 (G2019S)): 301 to 1000 nM | IC50 [1]: 301 to 1000 nM

COc1cc(S(C)(=O)=O)ccc1Nc1cc(NCCS(C)(=O)=O)c2c(Cl)c[nH]c2n1 [Example 88, 3-chloro-N^6-(2-methoxy-4-(methylsulfonyl)phenyl)-N^4-(2-(methylsulfonyl)ethyl)-1H-pyrrolo[2,3-b]pyridine-4,6-diamine]
IC50 (human GST-CLK1 (129-end)): 301 to 1000 nM | IC50 (LRRK2 (G2019S)): 301 to 1000 nM | IC50 [1]: 301 to 1000 nM

COc1cc(S(=O)(=O)N2CCC(N3CCOCC3)CC2)ccc1Nc1cc(NC2CCCC2)c2c(C#N)c[nH]c2n1 [Example 136, 4-(cyclopentylamino)-6-((2-methoxy-4-((4-morpholinopiperidin-1-yl)sulfonyl)phenyl)amino)-1H-pyrrolo[2,3-b]pyridine-3-carbonitrile]
IC50 (human GST-CLK1 (129-end)): 301 to 1000 nM | IC50 (LRRK2 (G2019S)): < 100 nM | IC50 [1]: 301 to 1000 nM

CCNc1cc(Nc2ccc(C(=O)N3OCC[C@@H]3c3cc(F)cc(F)c3)c3c2OCC3)nc2[nH]cc(C(F)(F)F)c12 [Example 245, (R)-(3-(3,5-difluorophenyl)isoxazolidin-2-yl)(7-((4-(ethylamino)-3-(trifluoromethyl)-1H-pyrrolo[2,3-b]pyridin-6-yl)amino)-2,3-dihydrobenzofuran-4-yl)methanone]
IC50 (human GST-CLK1 (129-end)): 301 to 1000 nM | IC50 (LRRK2 (G2019S)): 301 to 1000 nM | IC50 [1]: 301 to 1000 nM

CCNc1cc(Nc2ccc(C(=O)N3OCC[C@H]3c3cc(F)cc(F)c3)c3c2OCC3)nc2[nH]cc(C(F)(F)F)c12 [Example 246, (S)-(3-(3,5-difluorophenyl)isoxazolidin-2-yl)(7-((4-(ethylamino)-3-(trifluoromethyl)-1H-pyrrolo[2,3-b]pyridin-6-yl)amino)-2,3-dihydrobenzofuran-4-yl)methanone]
IC50 (human GST-CLK1 (129-end)): 301 to 1000 nM | IC50 (LRRK2 (G2019S)): 301 to 1000 nM | IC50 [1]: 301 to 1000 nM

CCNc1cc(Nc2ccc(C(=O)N3CCN(C4CCCC4)CC3)c3c2OCC3)nc2[nH]cc(C(F)(F)F)c12 [Example 251, (4-cyclopentylpipe razin-1-yl)(7-((4-(ethylamino)-3-(trifluoromethyl)-1H-pyrrolo[2,3-b]pyridin-6-yl)amino)-2,3-dihydrobenzofuran-4-yl)methanone]
IC50 (human GST-CLK1 (129-end)): < 100 nM | IC50 (LRRK2 (G2019S)): < 100 nM | IC50 [1]: 101 to 300 nM

C=CCN1CCN(C(=O)c2ccc(Nc3cc(NCC)c4c(C(F)(F)F)c[nH]c4n3)c3c2CCO3)CC1 [Example 252, (4-allylpiperazin-1-yl)(7-((4-(ethylamino)-3-(trifluoromethyl)-1H-pyrrolo[2,3-b]pyridin-6-yl)amino)-2,3-dihydrobenzofuran-4-yl)methanone]
IC50 (human GST-CLK1 (129-end)): < 100 nM | IC50 (LRRK2 (G2019S)): < 100 nM | IC50 [1]: < 100 nM

CCNc1cc(Nc2ccc(C(=O)N3CCN(C(C)C)CC3)c3c2OCC3)nc2[nH]cc(C(F)(F)F)c12 [Example 254, (7-((4-(ethylamino)-3-(trifluoromethyl)-1H-pyrrolo[2,3-b]pyridin-6-yl)amino)-2,3-dihydrobenzofuran-4-yl)(4-isopropylpiperazin-1-yl)methanone]
IC50 (human GST-CLK1 (129-end)): < 100 nM | IC50 (LRRK2 (G2019S)): < 100 nM | IC50 [1]: < 100 nM

CCNc1cc(Nc2ccc(C(=O)N3CCC4(CC3)CC4)c3c2OCC3)nc2[nH]cc(C(F)(F)F)c12 [Example 256, (7-((4-(ethylamino)-3-(trifluoromethyl)-1H-pyrrolo[2,3-b]pyridin-6-yl)amino)-2,3-dihydrobenzofuran-4-yl)(6-azaspiro[2.5]octan-6-yl)methanone]
IC50 (human GST-CLK1 (129-end)): 101 to 300 nM | IC50 (LRRK2 (G2019S)): 301 to 1000 nM | IC50 [1]: 301 to 1000 nM

CCNc1cc(Nc2ccc(C(=O)N3C[C@@H](C)O[C@@H](C)C3)c3c2OCC3)nc2[nH]cc(C(F)(F)F)c12 [Example 258, ((2S,6R)-2,6-dimethylmorpholino) (7-((4-(ethylamino)-3-(trifluoromethyl)-1H-pyrrolo[2,3-b]pyridin-6-yl)amino)-2,3-dihydrobenzofuran-4-yl)methanone]
IC50 (human GST-CLK1 (129-end)): 101 to 300 nM | IC50 (LRRK2 (G2019S)): 301 to 1000 nM | IC50 [1]: < 100 nM

CCNc1cc(Nc2ccc(C(=O)N3CCO[C@@H](C)C3)c3c2OCC3)nc2[nH]cc(C(F)(F)F)c12 [Example 259, (S)-(7-((4-(ethylamino)-3-(trifluoromethyl)-1H-pyrrolo[2,3-b]pyridin-6-yl)amino)-2,3-dihydrobenzofuran-4-yl)(2-methylmorpholino) methanone]
IC50 (human GST-CLK1 (129-end)): < 100 nM | IC50 (LRRK2 (G2019S)): < 100 nM | IC50 [1]: < 100 nM

CCNc1cc(Nc2ccc(C(=O)N3CCO[C@H](C)C3)c3c2OCC3)nc2[nH]cc(C(F)(F)F)c12 [Example 260, (R)-(7-((4-(ethylamino)-3-(trifluoromethyl)-1H-pyrrolo[2,3-b]pyridin-6-yl)amino)-2,3-dihydrobenzofuran-4-yl)(2-methylmorpholino) methanone]
IC50 (human GST-CLK1 (129-end)): < 100 nM | IC50 (LRRK2 (G2019S)): < 100 nM | IC50 [1]: < 100 nM

C=CCNc1cc(Nc2ccc(C(=O)N3CC[C@@H](N4CCOCC4)C3)c3c2OCC3)nc2[nH]cc(C(F)(F)F)c12 [Example 261, (R)-(7-((4-(allylamino)-3-(trifluoromethyl)-1H-pyrrolo[2,3-b]pyridin-6-yl)amino)-2,3-dihydrobenzofuran-4-yl)(3-morpholinopyrrolidin-1-yl)methanone]
IC50 (human GST-CLK1 (129-end)): < 100 nM | IC50 (LRRK2 (G2019S)): < 100 nM | IC50 [1]: 101 to 300 nM

C=CCNc1cc(Nc2ccc(C(=O)N3CC[C@H](N4CCOCC4)C3)c3c2OCC3)nc2[nH]cc(C(F)(F)F)c12 [Example 262, (S)-(7-((4-(allylamino)-3-(trifluoromethyl)-1H-pyrrolo[2,3-b]pyridin-6-yl)amino)-2,3-dihydrobenzofuran-4-yl)(3-morpholinopyrrolidin-1-yl)methanone]
IC50 (human GST-CLK1 (129-end)): < 100 nM | IC50 (LRRK2 (G2019S)): < 100 nM | IC50 [1]: 101 to 300 nM
